Measurements as given in article PMC11436758, “Computer-aided drug design to generate a unique antibiotic family” (Nature Communications, 2024).
Converted amounts (≈) assume the structure as drawn. “And” between values parts separate entries of the source, which are not always exact repeats. Equal values may be shown once. “Also recorded” adds a separate entry of the source.

Legend:
S. aureus (VISA) = experiment: MIC, clinical and laboratory strains; type: cell-based
Experimental: (§1) The medium employed for the assay was Mueller Hinton II Broth (MHB II; Becton-Dickinson, Sparks, MD, USA). Agar plates used for the organisms were trypticase soy agar plus 5% sheep blood (BD; Sparks, MD, USA). MIC assay plates were prepared using the CLSI broth microdilution procedure. Automated liquid handlers (Multidrop 384, Biomek 2000 and Biomek FX) were used to conduct serial dilutions and liquid transfers. A standardized inoculum of each organism was prepared per CLSI methods. Suspensions were prepared to equal a 0.5 McFarland standard, followed by a 1:20 dilution in test media. The inocula were dispensed into sterile reservoirs divided by length (Beckman Colter) and the Biomek 2000 was used to inoculate the plates. Daughter plates were placed on the Biomek 2000 work surface in reverse orientation so that inoculation took place from low to high drug concentration. The Biomek 2000 delivered 10 μL of the diluted suspension into each well. These inoculations yielded a final cell concentration in the daughter plates of ~5 × 10^5 colony-forming units/mL in each well. The wells of the daughter plates ultimately contained 185 μL of broth, 5 μL of drug solution, and 10 μL of bacterial inoculum. Plates were covered with a sterile lid on the top plate, placed in plastic bags, and incubated at 35 °C for ~18 h. The microplates were viewed from the bottom using a plate viewer and the MIC was read. The MIC was recorded as the lowest concentration of drug that inhibited visible growth of the organism.

S. aureus (MSSA) = experiment: MIC, clinical and laboratory strains; type: cell-based
Experimental: as §1

S. aureus (MRSA) = experiment: MIC, clinical and laboratory strains; type: cell-based
Experimental: as §1

[1] = Histopathology (H&E) of treated rabbit ischemic ear wounds, dermal toxicity; settings: Suppl Fig 7, score per wound
Experimental: Wounds were excised, fixed, and routine H&E staining was performed. Wounds were examined for pathology and scored in a blinded manner.
Post-wounding, under anesthesia, animals were euthanized with an intravenous injection of Beuthanasia-D at a dosage of 150 mg/kg of body weight. Specimens including the entire wound, along with ~2–3 mm of the normal unwounded skin margins were harvested. Each ear wound specimen was sectioned into halves. For one half of the wound, the wound was placed into a container with 10% neutral buffered formalin and processed for routine histological evaluation. Wounds were scored on a scale of 0–4 at the wound site for erythema, edema, inflammation, granulation, angiogenesis, and epithelialization. Wounds were characterized in a blinded manner by a board-certified member of the College of American Pathologists.

MRSA (ATCC 33591) = experiment: Rabbit ischemic ear wound model of infection by MRSA, topical treatment; type: in vivo, New Zealand White rabbits; settings: for % wound closure / wound size (mean) / Wound size (mm2): Fig 2c
Experimental: New Zealand White rabbits from Charles River were employed for this study. Both male and female rabbits were used; sample size prevented disaggregation of data by sex. Investigators were blinded to group allocation, data collection, and data analysis. Food and water were given ad libidum and animals were acclimatized for 7 days with photoperiods of alternating 12 h light and dark at 21 °C in relative humidity of 40–50%. The formulation for delivery of DNM compounds was Glaxal base (WellSpring Pharmaceutical Canada Corp., Oakville, Canada). Formulation was performed by dissolving compound in Glaxal base to give final concentrations of 1% or 2% DNM compound (w/v). The analgesic (Buprenex 0.02 mg/kg sc) and anesthesia (isoflurane (0.5–5% with oxygen carrier 0.5–2 L/min) were used as required during procedures. An ischemia wound healing model was conducted surgically. Each wound was inoculated with 50 μl of 2 × 10^7 CFU/mL MRSA (ATCC #33591) and dressed. After 1 day, wounds were treated with either 50 μl control cream containing vehicle or 50 μl cream containing compound daily. Wounds were assessed and observations recorded using the Draize scoring system. Digital photographs of each wound were obtained and documented.

[2] = test system: 102 ATCC strains and clinical isolates of Staphylococcus, Streptomyces, and Enterococcus; experiment: MIC panel summary over all strains; type: cell-based; settings: of 102 strains
Experimental: We also sought to determine if DNM0547 was bacteriostatic or bactericidal. Time kill experiments were carried out using increasing doses of DNM0547 against two different strains of MRSA.
as §1

- MIC (S. aureus (VISA); S. aureus (VISA) 1724): 0.25 µg/mL (≈ 0.499 µM)
- MIC (S. aureus (VISA); S. aureus (VISA) 2012): 1 µg/mL (≈ 2 µM)
- MIC (S. aureus (VISA); S. aureus (VISA) 2013): 0.25 µg/mL (≈ 0.499 µM)
- MIC (S. aureus (VISA); S. aureus (VISA) 2014): 0.5 µg/mL (≈ 0.999 µM)
- MIC (S. aureus (VISA); S. aureus (VISA) 2015): 0.06 µg/mL (≈ 0.12 µM)
- MIC (S. aureus (VISA); S. aureus (VISA) 2016): 0.25 µg/mL (≈ 0.499 µM)
- MIC (S. aureus (VISA); S. aureus (VISA) 2017): 0.5 µg/mL (≈ 0.999 µM)
- MIC (S. aureus (VISA); S. aureus (VISA) 2018): 0.12 µg/mL (≈ 0.24 µM)
- MIC (S. aureus (VISA); S. aureus (VISA) 2019): 4 µg/mL (≈ 7.99 µM)
- MIC (S. aureus (VISA); S. aureus (VISA) 2123): 0.25 µg/mL (≈ 0.499 µM)
- MIC (S. aureus (VISA); S. aureus (VISA) NRS1/1723): 0.25 µg/mL (≈ 0.499 µM)
- MIC (S. aureus (MSSA); S. aureus (MSSA) 2127): > 16 µg/mL
- MIC (S. aureus (MSSA); S. aureus (MSSA) 6167): 1 µg/mL (≈ 2 µM)
- MIC (S. aureus (MSSA); S. aureus (MSSA) 6168): 2 µg/mL (≈ 3.99 µM)
- MIC (S. aureus (MSSA); S. aureus (MSSA) 6170): 2 µg/mL (≈ 3.99 µM)
- MIC (S. aureus (MSSA); S. aureus (MSSA) 6316): 2 µg/mL (≈ 3.99 µM)
- MIC (S. aureus (MSSA); S. aureus (MSSA) 6317): 1 µg/mL (≈ 2 µM)
- MIC (S. aureus (MSSA); S. aureus (MSSA) 6318): 2 µg/mL (≈ 3.99 µM)
- MIC (S. aureus (MSSA); S. aureus (MSSA) 6499): 1 µg/mL (≈ 2 µM)
- MIC (S. aureus (MSSA); S. aureus (MSSA) 6500): 1 µg/mL (≈ 2 µM)
- MIC (S. aureus (MSSA); S. aureus (MSSA) 6502): 1 µg/mL (≈ 2 µM)
- MIC (S. aureus (MRSA); S. aureus (MRSA) 2167): 0.12 µg/mL (≈ 0.24 µM)
- MIC (S. aureus (MRSA); S. aureus (MRSA) 2168): 0.25 µg/mL (≈ 0.499 µM)
- MIC (S. aureus (MRSA); S. aureus (MRSA) 2169): 0.25 µg/mL (≈ 0.499 µM)
- MIC (S. aureus (MRSA); S. aureus (MRSA) 2170): 0.25 µg/mL (≈ 0.499 µM)
- MIC (S. aureus (MRSA); S. aureus (MRSA) 2171): 0.25 µg/mL (≈ 0.499 µM)
- MIC (S. aureus (MRSA); S. aureus (MRSA) 2293): 0.25 µg/mL (≈ 0.499 µM)
- MIC (S. aureus (MRSA); S. aureus (MRSA) 2294): 0.25 µg/mL (≈ 0.499 µM)
- MIC (S. aureus (MRSA); S. aureus (MRSA) 2295): 0.25 µg/mL (≈ 0.499 µM)
- MIC (S. aureus (MRSA); S. aureus (MRSA) 2296): 0.25 µg/mL (≈ 0.499 µM)
- MIC (S. aureus (MRSA); S. aureus (MRSA) 2297): 0.25 µg/mL (≈ 0.499 µM)
- MIC (S. aureus (MRSA); S. aureus (MRSA) 3880): > 16 µg/mL
- MIC (S. aureus (MRSA); S. aureus (MRSA) 5373): 1 µg/mL (≈ 2 µM)
- MIC (S. aureus (MRSA); S. aureus (MRSA) 5666): 1 µg/mL (≈ 2 µM)
- MIC (S. aureus (MRSA); S. aureus (MRSA) 5702): 1 µg/mL (≈ 2 µM)
- MIC (S. aureus (MRSA); S. aureus (MRSA) 5999): 1 µg/mL (≈ 2 µM)
- MIC (S. aureus (MRSA); S. aureus (MRSA) 6165): 1 µg/mL (≈ 2 µM)
- MIC (S. aureus (MRSA); S. aureus (MRSA) 6169): 0.5 µg/mL (≈ 0.999 µM)
- MIC (S. aureus (MRSA); S. aureus (MRSA) 6174): 1 µg/mL (≈ 2 µM)
- MIC (S. aureus (MRSA); S. aureus (MRSA) 6311): 1 µg/mL (≈ 2 µM)
- MIC (S. aureus (MRSA); S. aureus (MRSA) 6312): 1 µg/mL (≈ 2 µM)
- MIC (S. aureus (MRSA); S. aureus (MRSA) 6313): 1 µg/mL (≈ 2 µM)
- MIC (S. aureus (MRSA); S. aureus (MRSA) 6315): 1 µg/mL (≈ 2 µM)
- MIC (S. aureus (MRSA); S. aureus (MRSA) 6320): 1 µg/mL (≈ 2 µM)
- MIC (S. aureus (MRSA); S. aureus (MRSA) 6498): 1 µg/mL (≈ 2 µM)
- MIC (S. aureus (MRSA); S. aureus (MRSA) 6501): 1 µg/mL (≈ 2 µM)
- MIC (S. aureus (MRSA); S. aureus (MRSA) 6505): 1 µg/mL (≈ 2 µM)
- MIC (S. aureus (MRSA); S. aureus (MRSA) 6506): 1 µg/mL (≈ 2 µM)
- MIC (S. aureus (MRSA); S. aureus (MRSA) NRS382/2119): 1 µg/mL (≈ 2 µM)
- MIC (S. aureus (MRSA); S. aureus (MRSA) NRS383/2120): > 16 µg/mL
- MIC (S. aureus (MRSA); S. aureus (MRSA) NRS384/2011): 1 µg/mL (≈ 2 µM)
- number of strains tested with MIC not ≤ 2 μg/mL [2]: 26
SMILES: C/C(=C\C(=O)OCCCCCCCCC(=O)O)C[C@@H]1OC[C@H](C[C@@H]2O[C@H]2[C@@H](C)[C@H](C)O)[C@@H](O)[C@H]1O [mupirocin]
- Edema [1]: 2
- Erythema [1]: 2
- Inflammation [1]: 3 and 4
- CFUs (MRSA (ATCC 33591); Fig 2b, individual wounds): 0 CFUs (6×) and 4120 CFUs
- % wound closure (MRSA (ATCC 33591); Day 1): 0%
- wound size (mean) (MRSA (ATCC 33591); Day 1): 34.3 mm2
- % wound closure (MRSA (ATCC 33591); Day 3): 3.64%
- wound size (mean) (MRSA (ATCC 33591); Day 3): 33.056 mm2
- wound size (mean) (MRSA (ATCC 33591); Day 5): 31.872 mm2
- % wound closure (MRSA (ATCC 33591); Day 7): 10.3%
- wound size (mean) (MRSA (ATCC 33591); Day 7): 30.776 mm2
- % wound closure (MRSA (ATCC 33591); Day 10): 22.68%
- wound size (mean) (MRSA (ATCC 33591); Day 10): 26.526 mm2
- % wound closure (MRSA (ATCC 33591); Day 14): 43.29%
- wound size (mean) (MRSA (ATCC 33591); Day 14): 19.45 mm2
- % wound closure (MRSA (ATCC 33591); Day 18): 53.8%
- wound size (mean) (MRSA (ATCC 33591); Day 18): 15.838 mm2
- Wound size (mm2) (MRSA (ATCC 33591); individual wounds, Day 1): 36.53 mm2 and 30.25 mm2 and 32.45 mm2 and 37.03 mm2 and 35.24 mm2
- Wound size (mm2) (MRSA (ATCC 33591); individual wounds, Day 3): 33.98 mm2 and 27.23 mm2 and 29.57 mm2 and 36.33 mm2 and 38.17 mm2
- Wound size (mm2) (MRSA (ATCC 33591); individual wounds, Day 5): 33.31 mm2 and 25.96 mm2 and 29.21 mm2 and 35.69 mm2 and 35.19 mm2
- Wound size (mm2) (MRSA (ATCC 33591); individual wounds, Day 7): 31.43 mm2 and 25.29 mm2 and 28.29 mm2 and 34.94 mm2 and 33.93 mm2
- Wound size (mm2) (MRSA (ATCC 33591); individual wounds, Day 10): 30.25 mm2 and 23.34 mm2 and 26.6 mm2 and 26.26 mm2 and 26.18 mm2
- Wound size (mm2) (MRSA (ATCC 33591); individual wounds, Day 14): 23.68 mm2 and 17.17 mm2 and 19.28 mm2 and 18.84 mm2 and 18.28 mm2
- Wound size (mm2) (MRSA (ATCC 33591); individual wounds, Day 18): 20.63 mm2 and 12.49 mm2 and 12.8 mm2 and 15.19 mm2 and 18.08 mm2
- wound healing compared with control (MRSA (ATCC 33591); topical 2%): did not alter wound healing from control; also recorded: not statistically significant
